Measured values as given in patent US8106055B2, “Substituted amide compounds” (Gruenenthal GmbH, priority 2007, dated 2012).

How the values were obtained:
human μ opiate receptor = molecular target: T1, human μ opiate receptor (Homo sapiens, UniProt P35372); assay: Affinity for the human μ opiate receptor ([3H]-naloxone displacement, CHO-K1 receptor membrane preparation, SPA); format: binding; settings: test concentration of 1 μM; for inhibition at 1 µM: read-out: μ (binding on the μ opioid receptor, % inhibition)
T1 construct: purchased PerkinElmer Life Sciences, Zaventem, Belgium RB-HOM; host or cells: CHO-K1 cells (membrane preparation)
T1 sequence (P35372 whole entry): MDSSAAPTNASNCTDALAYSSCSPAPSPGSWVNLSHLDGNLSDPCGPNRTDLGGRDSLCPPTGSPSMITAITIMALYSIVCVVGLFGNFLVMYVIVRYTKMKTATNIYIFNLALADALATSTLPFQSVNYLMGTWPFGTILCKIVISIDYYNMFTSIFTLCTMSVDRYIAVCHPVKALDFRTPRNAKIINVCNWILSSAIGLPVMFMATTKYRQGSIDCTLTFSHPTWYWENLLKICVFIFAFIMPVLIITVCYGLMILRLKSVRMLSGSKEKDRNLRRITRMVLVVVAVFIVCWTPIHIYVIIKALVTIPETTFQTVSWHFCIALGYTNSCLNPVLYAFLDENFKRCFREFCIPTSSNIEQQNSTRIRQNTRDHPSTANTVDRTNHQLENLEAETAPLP
In short: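 CHO-K1 membranes expressing human μ receptor incubated 90 min at room temperature with 1 nmol/l [3H]-naloxone and WGA-SPA beads in 50 mmol/l Tris-HCl, 0.06% BSA; 100 μmol/l naloxone defines non-specific binding. Values are % inhibition of specific binding at 1 μM; IC50 converted to Ki by Cheng-Prusoff.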

[1] = molecular target: T2, serotonin (5-HT) reuptake (Rattus norvegicus, UniProt P31652); assay: Inhibition of serotonin (5HT) reuptake in synaptosomes from rat brain; format: biochemical; settings: test concentration of 10 μM; for inhibition at 10 µM: read-out: 5-HT (inhibition of reuptake of serotonin, % inhibition)
T2 construct: synaptosomes are freshly isolated from areas of the rat brain; from tissue; host or cells: rat brain synaptosomes (P2 fraction)
T2 sequence (P31652 whole entry): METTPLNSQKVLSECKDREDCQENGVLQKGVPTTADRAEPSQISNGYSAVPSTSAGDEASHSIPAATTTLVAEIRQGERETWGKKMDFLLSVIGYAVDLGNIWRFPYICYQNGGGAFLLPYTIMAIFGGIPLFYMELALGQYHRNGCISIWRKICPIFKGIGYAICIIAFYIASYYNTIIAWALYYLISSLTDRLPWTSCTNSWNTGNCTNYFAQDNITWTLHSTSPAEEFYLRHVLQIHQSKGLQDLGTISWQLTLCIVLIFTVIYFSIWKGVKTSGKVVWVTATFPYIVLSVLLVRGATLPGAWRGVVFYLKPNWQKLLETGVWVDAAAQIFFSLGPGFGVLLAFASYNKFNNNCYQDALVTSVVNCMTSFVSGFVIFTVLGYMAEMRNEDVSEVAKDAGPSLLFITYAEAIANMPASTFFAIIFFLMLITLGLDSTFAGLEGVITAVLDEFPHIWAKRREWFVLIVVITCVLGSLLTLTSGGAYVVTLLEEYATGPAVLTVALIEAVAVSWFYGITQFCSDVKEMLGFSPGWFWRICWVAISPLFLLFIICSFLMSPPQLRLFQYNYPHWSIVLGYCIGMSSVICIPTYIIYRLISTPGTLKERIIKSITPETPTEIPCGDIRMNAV
In short: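 Freshly isolated rat brain synaptosomes (P2 fraction) used for 5-HT reuptake. Test compound at 10 μM, activity given as % inhibition.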

Structure (SMILES)	μ (binding on the μ opioid receptor, % inhibition) (human μ opiate receptor) [%]	5-HT (inhibition of reuptake of serotonin, % inhibition) [1] [%]	inhibition at 1 µM (human μ opiate receptor) [%]	inhibition at 10 µM [1] [%]	other results
COc1ccc(S(=O)(=O)N2CCC(OCC(=O)NCC3CCC(C(CCc4ccccc4)N(C)C)CC3)C2)cc1OC (stereo not drawn) [Example 566]	19	87			
COc1ccc(S(=O)(=O)N2CCCC2COCC(=O)NCC2CCC(C(CCc3ccccc3)N(C)C)CC2)cc1 (stereo not drawn) [Example 572]	29	93			
COc1cc(C)c(S(=O)(=O)N(CCOCC(=O)NCC2CCC(C(CCc3ccccc3)N(C)C)CC2)Cc2ccccc2)c(C)c1C (stereo not drawn) [Example 562]	23	96			
COc1ccc(S(=O)(=O)N2CCCCC2COCC(=O)NCC2CCC(C(CCc3ccccc3)N(C)C)CC2)c(OC)c1 (stereo not drawn) [Example 486]					μ (binding on the μ opioid receptor, % inhibition) (human μ opiate receptor; 1 µM): 36%; 5-HT (inhibition of reuptake of serotonin, % inhibition) ([1]; 10 µM): 73%
COc1cc(C)c(S(=O)(=O)N2CCC(OCC(=O)NCC3CCC(C(CCc4ccccc4)N(C)C)CC3)C2)c(C)c1 (stereo not drawn) [Example 565]	20	94			
CN(C)C(c1ccccc1)C1CCC(CNC(=O)COCCN(C)S(=O)(=O)c2ccc(F)cc2)CC1 (stereo not drawn) [Example 112, N-((4-((dimethylamino)(phenyl)methyl)cyclohexyl)methyl)-2-(2-(4-fluoro-N-methylphenylsulfonamido)ethoxy)acetamide]			82	85	
COc1ccc(S(=O)(=O)N2CCCC2COCC(=O)NCC2CCC(C(c3cccs3)N(C)C)CC2)cc1 (stereo not drawn) [Example 105, N-((4-((dimethylamino)(thiophen-2-yl)methyl)cyclohexyl)methyl)-2-((1-(4-methoxyphenylsulfonyl)pyrrolidin-2-yl)methoxy)acetamide]			93	95	
CN(C)C(c1cccc(F)c1)C1CCC(CCNC(=O)COCCC2CCN(S(=O)(=O)c3ccccc3)CC2)CC1 (stereo not drawn) [Example 543]	29	76			
COc1cc(C)c(S(=O)(=O)N2CCCC(OCC(=O)NCCC3CCC(C(c4cccs4)N(C)C)CC3)C2)c(C)c1C (stereo not drawn) [Example 130, N-(2-(4-((dimethylamino)(thiophen-2-yl)methyl)cyclohexyl)ethyl)-2-(1-(4-methoxy-2,3,6-trimethylphenylsulfonyl)piperidin-3-yloxy)acetamide]			94	95	
COc1cc(C)c(S(=O)(=O)N(CCOCC(=O)NCCC2CCC(C(c3ccc(Cl)cc3)N(C)C)CC2)Cc2ccccc2)c(C)c1C (stereo not drawn) [Example 576]	15	73			
CN(C)C(CCc1ccccc1)C1CCC(CNC(=O)COCC2CCCN(S(=O)(=O)c3ccccc3)C2)CC1 (stereo not drawn) [Example 544]	24	92			
COc1ccc(S(=O)(=O)N2CCCCC2CCOCC(=O)NC2CCC(C(c3cccs3)N(C)C)CC2)cc1 (stereo not drawn) [Example 6, N-(4-((dimethylamino)(thiophen-2-yl)methyl)cyclohexyl)-2-(2-(1-(4-methoxyphenylsulfonyl)piperidin-2-yl)ethoxy)acetamide]			99	91	
COc1cc(C)c(S(=O)(=O)N(CCOCC(=O)NCCC2CCC(C(c3ccc(F)cc3)N(C)C)CC2)Cc2ccccc2)c(C)c1C (stereo not drawn) [Example 554]	28	92			
CN(C)C(c1ccc(F)cc1)C1CCC(CCNC(=O)COCCN(C)S(=O)(=O)c2ccc(Cl)cc2Cl)CC1 (stereo not drawn) [Example 586]	3	73			
COc1ccc(S(=O)(=O)N(C)CCOCC(=O)NCC2CCC(C(c3cccs3)N(C)C)CC2)cc1OC (stereo not drawn) [Example 127, 2-(2-(3,4-Dimethoxy-N-methylphenylsulfonamido)ethoxy)-N-((4-((dimethylamino)(thiophen-2-yl)methyl)cyclohexyl)methyl)acetamide]			87	79	
CN(C)C(CCc1ccccc1)C1CCC(CNC(=O)COC2CCN(S(=O)(=O)c3cccc(C(F)(F)F)c3)C2)CC1 (stereo not drawn) [Example 552]	23	90			
CN(C)C(CCc1ccccc1)C1CCC(CNC(=O)COCCN(C)S(=O)(=O)c2c(Cl)cccc2Cl)CC1 (stereo not drawn) [Example 476]					μ (binding on the μ opioid receptor, % inhibition) (human μ opiate receptor; 1 µM): 47%; 5-HT (inhibition of reuptake of serotonin, % inhibition) ([1]; 10 µM): 80%
CN(C)C(CCc1ccccc1)C1CCC(CNC(=O)COCCN(C)S(=O)(=O)c2c(Cl)cccc2Cl)CC1 (stereo not drawn) [Example 580]					μ (binding on the μ opioid receptor, % inhibition) (human μ opiate receptor; 1 µM): 13%; 5-HT (inhibition of reuptake of serotonin, % inhibition) ([1]; 10 µM): 77%
Cc1cc(C)c(S(=O)(=O)N(C)CCOCC(=O)NCCC2CCC(C(c3cccc(F)c3)N(C)C)CC2)c(C)c1 (stereo not drawn) [Example 587]	−5	86			
COc1cc(C)c(S(=O)(=O)N2CCC(CCOCC(=O)NCCC3CCC(C(c4ccc(Cl)cc4)N(C)C)CC3)CC2)c(C)c1C (stereo not drawn) [Example 561]	26	79			
CN(C)C(CCc1ccccc1)C1CCC(CNC(=O)COC2CCN(S(=O)(=O)c3ccc(Cl)cc3)C2)CC1 (stereo not drawn) [Example 557]	26	88			
COc1cc(C)c(S(=O)(=O)N2CCC(OCC(=O)NCC3CCC(C(c4cccs4)N(C)C)CC3)CC2)c(C)c1C (stereo not drawn) [Example 104, N-((4-((dimethylamino)(thiophen-2-yl)methyl)cyclohexyl)methyl)-2-(1-(4-methoxy-2,3,6-trimethylphenylsulfonyl)piperidin-4-yloxy)acetamide]			90	93	
COc1ccc(S(=O)(=O)N2CCCCC2COCC(=O)NCC2CCC(C(c3cccs3)N(C)C)CC2)cc1OC (stereo not drawn) [Example 133, 2-((1-(3,4-Dimethoxyphenylsulfonyl)piperidin-2-yl)methoxy)-N-((4-((dimethylamino)(thiophen-2-yl)methyl)cyclohexyl)methyl)acetamide]			89	88	
COc1ccc(S(=O)(=O)N2Cc3ccccc3CC2COCC(=O)NCC2CCC(C(c3cccs3)N(C)C)CC2)cc1 (stereo not drawn) [Example 7, N-((4-((dimethylamino)(thiophen-2-yl)methyl)cyclohexyl)methyl)-2-((2-(4-methoxyphenylsulfonyl)-1,2,3,4-tetrahydroisoquinolin-3-yl)methoxy)acetamide]			99	92	
COc1ccc(S(=O)(=O)N(C)CCOCC(=O)NCCC2CCC(C(c3cccs3)N(C)C)CC2)cc1 (stereo not drawn) [Example 128, N-(2-(4-((dimethylamino)(thiophen-2-yl)methyl)cyclohexyl)ethyl)-2-(2-(4-methoxy-N-methylphenylsulfonamido)ethoxy)acetamide]			91	83	
COc1ccc(S(=O)(=O)N2CCCCC2COCC(=O)NCCC2CCC(C(c3cccs3)N(C)C)CC2)c(OC)c1 (stereo not drawn) [Example 107, 2-((1-(2,4-dimethoxyphenylsulfonyl)piperidin-2-yl)methoxy)-N-(2-(4-((dimethylamino)(thiophen-2-yl)methyl)cyclohexyl)ethyl)acetamide]			92	90	
COc1ccc(S(=O)(=O)N(C)CCOCC(=O)NC2CCC(C(c3ccc(F)cc3)N(C)C)CC2)cc1 (stereo not drawn) [Example 549]	29	81			
CN(C)C(c1ccccc1)C1CCC(CNC(=O)COC2CCN(S(=O)(=O)c3cccc(C(F)(F)F)c3)C2)CC1 (stereo not drawn) [Example 113, N-((4-((dimethylamino)(phenyl)methyl)cyclohexyl)methyl)-2-(1-(3-(trifluoromethyl)phenylsulfonyl)pyrrolidin-3-yloxy)acetamide]			90	88	
COc1cc(C)c(S(=O)(=O)N(CCOCC(=O)NCC2CCC(C(c3ccc(Cl)cc3)N(C)C)CC2)Cc2ccccc2)c(C)c1C (stereo not drawn) [Example 560]	22	47			
CN(C)C(c1ccc(Cl)cc1)C1CCC(CNC(=O)COCCC2CCN(S(=O)(=O)c3ccccc3)CC2)CC1 (stereo not drawn) [Example 584]	7	64			
